Data reported in PubChem BioAssay (NCI).
Where “and” joins values, the source holds several entries; their conditions need not be identical. Identical values can stand only once.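 Growth conditions: 96-well plates. Treatment: test compound, 48 hours, 5 concentrations. Analysis: linear interpolation between bracketing concentrations; unreached endpoints set to highest concentration. Here, GI50 denotes the concentration required for 50% inhibition of growth. TGI is the concentration that stops growth completely.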

Assays:
Experiment in all cases: NCI anticancer screen, dose series, 48 h
HOP-92 NSCLC = tested on: HOP-92 NSCLC
M14 melanoma = tested on: M14 melanoma
MDA-MB-435 = tested on: MDA-MB-435
NCI-H23 lung = tested on: NCI-H23 lung
NCI-H522 lung = tested on: NCI-H522 lung
OVCAR-8 ovarian = tested on: OVCAR-8 ovarian
RXF 393 renal = tested on: RXF 393 renal
SF-539 CNS = tested on: SF-539 CNS
SK-MEL-5 melanoma = tested on: SK-MEL-5 melanoma
SN12C renal = tested on: SN12C renal

Structure (SMILES) | TGI (HOP-92 NSCLC) [µM] | TGI (M14 melanoma) [µM] | TGI (MDA-MB-435) | TGI (NCI-H23 lung) [µM] | TGI (NCI-H522 lung) [µM] | TGI (OVCAR-8 ovarian) [µM] | TGI (RXF 393 renal) [µM] | TGI (SF-539 CNS) [µM] | TGI (SK-MEL-5 melanoma) [µM] | TGI (SN12C renal) [µM] | GI50 (HOP-92 NSCLC) [µM] | GI50 (M14 melanoma) [µM] | GI50 (MDA-MB-435) [µM] | GI50 (NCI-H23 lung) [µM] | GI50 (NCI-H522 lung) [µM] | GI50 (OVCAR-8 ovarian) [µM] | GI50 (RXF 393 renal) [µM] | GI50 (SF-539 CNS) [µM] | GI50 (SK-MEL-5 melanoma) [µM] | GI50 (SN12C renal) [µM]
COc1ccc(-c2cc(-c3cc4cc(Br)ccc4nc3Cl)c(C#N)c(N)n2)cc1 | > 12.5 | > 12.5 | > 12.5 µM | > 12.5 | > 12.5 | > 12.5 | > 12.5 | > 12.5 | > 12.5 | > 12.5 |  |  |  |  |  |  |  |  |  | 
O=C(O)c1nc(-c2ccccc2)[nH]c1C(=O)O | 32.4 | 25.2 | 21.3 µM | 31.8 | 32 | 29.7 | 26.5 | 22.7 | 28.6 | 26.6 |  |  |  |  |  |  |  |  |  | 
CCCCCCCCCCCCCCCCCCNc1ccn(C2OC(COP(=O)(O)OCC3OC(n4cc(F)c(NCCCCCCCCCCCCCCCCCC)nc4=O)CC3O)C(O)C2O)c(=O)n1 (stereo unspecified) | > 100 | > 100 | > 100 µM | > 100 | > 100 | > 100 | > 100 | > 100 | > 100 | > 100 |  |  |  |  |  |  |  |  |  | 
COC(=O)[C@H]1CO[C@H]2C/C(C)=C/CC/C(C)=C/CC[C@@]3(C)O[C@@H]3C[C@H]21 | > 50 | > 50 | 25.1 µM | > 50 | 18.8 | > 50 | 42.6 | > 50 | 15.5 | 24.3 |  |  |  |  |  |  |  |  |  | 
CCNC(=O)c1cc(/C=C/c2ccc([N+](=O)[O-])o2)nc2ccccc12 | > 100 | 14.5 | 12.6 µM | > 100 | > 49 | > 100 | > 100 | > 100 | 4.1 | > 100 |  |  |  |  |  |  |  |  |  | 
C=C(C)C(O)C(O)c1c(OC)ccc2ccc(=O)oc12 (stereo unspecified) | > 100 | > 100 | > 100 µM | > 100 | > 100 | > 100 | > 100 | > 100 | > 100 | > 100 |  |  |  |  |  |  |  |  |  | 
COc1ccccc1NC(=O)CC(=O)N1N=C(C)C(N=Nc2ccc(C(=O)O)cc2)C1=O (stereo unspecified) | > 100 | > 100 | > 100 µM | > 100 | > 100 | > 100 | > 100 | > 100 | > 100 | > 100 |  |  |  |  |  |  |  |  |  | 
Cc1ccc2c(c1C)C(=O)/C(=C/c1ccccc1C(=O)O)C2 | > 100 | > 100 | > 100 µM | > 100 | > 100 | > 100 | > 100 | > 100 | > 100 | > 100 |  |  |  |  |  |  |  |  |  | 
Oc1c([Si](c2ccccc2)(c2ccccc2)c2ccccc2)cc2ccccc2c1-c1c(O)c([Si](c2ccccc2)(c2ccccc2)c2ccccc2)cc2ccccc12 | > 100 | > 100 | > 100 µM | > 100 | > 100 | > 100 | > 100 | > 100 | > 100 |  |  |  |  |  |  |  |  |  |  | 
Cc1cc(N2CCCC2)nc(N(CCNc2ccnc3cc(Cl)ccc23)Cc2ccco2)n1 | 13.2 | > 100 | > 100 µM | > 100 | > 100 | > 100 | 6.74 | 10.4 | 3.28 | > 100 | 1.88 | 2.93 | 3.33 | 2.75 | 3.59 | 4.35 | 2.14 | 3.27 | 1.78 | 3.88
CCCC(=O)NC(Nc1ccc(S(=O)(=O)Nc2nc(C)cc(C)n2)cc1)(C(F)(F)F)C(F)(F)F | > 100 | > 100 | > 100 µM | > 100 | > 100 | > 100 | > 100 | > 100 | > 100 | > 100 |  |  |  |  |  |  |  |  |  | 
COC(=O)c1cc2ccc(OC(C)=O)c(OC(C)=O)c2cn1 | 32.4 | 34.3 | 3.16 µM and 3.26 µM | 36.8 | 34.5 | 22.2 | 33.4 | 33.8 | 30.3 | 21.3 |  |  |  |  |  | 10.1 |  |  |  | 6.91
CC1=NN(c2nc(N)nc(/C(C#N)=C/c3cccn3-c3cc(Cl)cc(Cl)c3)n2)C(C)(C)C1 | > 100 | > 100 | > 100 µM | > 100 | > 100 | > 100 | > 100 | > 100 | > 100 | > 100 |  |  |  |  |  |  |  |  |  | 
CN(C)c1nc2oc(-c3ccccc3)c(-c3ccccc3)c2c2nnnn12 | > 100 | > 100 | > 100 µM | > 100 | > 100 | > 100 | > 100 | > 100 | > 100 | > 100 |  |  |  |  |  |  |  |  |  | 
CCCCCC(C)SC1(C(=O)OC)CC(OC(C)=O)C(NC(C)=O)C([C@H](OC(C)=O)[C@@H](COC(C)=O)OC(C)=O)O1 (stereo partly specified) | > 100 | > 100 | > 100 µM | > 100 | > 100 | > 100 | > 100 | 70.1 | > 100 | > 100 |  |  |  |  |  |  |  |  |  | 
N#Cc1ccccc1-c1nc2c3c(c(N)ccc3n1)C(=O)c1ccccc1-2 | > 100 | > 100 | > 100 µM | > 100 | > 100 | > 100 | > 100 | > 100 | 74.5 | > 100 |  |  |  |  |  |  |  |  |  | 
